What was measured:
[1] = tested on: cultured hippocampal samples; assay: fEPSP recording on MED probe: neurodegeneration induced by NMDA and AMPA; assay type: cell-based, Sprague-Dawley rats; settings: for effect of chronic exposure on synaptic responses: chronic exposure of cultured hippocampal samples; for Hill coefficient: electrophysiology dose-response curve; for EC50: electrophysiology, various concentrations of agonist, read-out: EC50 (decrease of synaptic responses, Hill fit of plateau values of I/O curves); for synaptic responses, of the initial amplitude: then one hour of NMDA wash-out
Experimental: Before use, the MED probes (Panasonic, model MED-P530AP, each electrode: […], interpolar distance: 300 μm) were soaked in 70% ethanol for 15 minutes, dried, and then sterilized with UV radiation for 15 minutes. The probe surfaces were treated overnight at room temperature with 0.1% polyethylenimine and 25 mM borate buffer, pH 8.4. The probe surface was then dried and rinsed 3 times with sterile distilled water. Finally, the probes were filled with culture medium and stored in a CO2 incubator until use (for at least one hour). The culture medium was a 2:1 mixture of Basal Medium Eagle Medium (Sigma, Catalog No. B9638) and Earle Balanced Salts Solution (Sigma, Catalog No. E7510), supplemented with the following compounds (in mM): NaCl (20), NaHCO3 (5), CaCl2 (0.2), MgSO4 (1.7), glucose (48), HEPES (26.7); 5% horse serum (GIBCO, Catalog No. 26050) and 10 ml/L penicillin-streptomycin (GIBCO, Catalog No. 10378). The pH of culture medium was then adjusted to 7.2.
All procedures for culture preparation were carried out under a sterilized bench. Eleven day-old Sprague-Dawley rats were first sterilized with 70% ethanol, sacrificed by decapitation following anesthesia and the whole brain removed. The brains were immediately soaked in sterile ice-cold MEM (pH 7.2; GIBCO, Catalog No. 61100), supplemented with HEPES (25 mM), Tris-base (10 mM), glucose (10 mM) and MgCl2 (3 mM). Appropriate portions of the brain were then trimmed by hand and the remaining brain block placed on an ice-cold stage of a vibrating tissue slicer (Leica, model VT1000S). The thickness of the slices was set at 200 μm. The slices were gently taken off from the blade with a pipette. Each slice was trimmed, placed on the center of the MED probe, which was previously coated as mentioned above, and positioned to cover the 8×8 microelectrode array.
After positioning the section on the MED probe, the cutting solution was removed and culture medium added to the slice up to an interface level (approximately […]). Sterile distilled water was added around the probe to increase humidity and prevent over-drying of the culture medium in the MED probe. The slices on the MED probes were then stored in a CO2 incubator at 34° C. The medium was exchanged with half volume every day.
(§1) For baseline electrophysiological recordings in hippocampal samples, the MED probes containing the samples were removed from the incubator and placed in a smaller CO2 incubator at 34° C. and connected to the stimulation/recording component of the probe. The culture medium was replaced with sterile artificial cerebrospinal fluid (ACSF) of the following composition (in mM): NaCl (124), NaHCO3 (26), glucose (10), KCl (3), NaH2PO4 (1.25), CaCl2 (2), MgSO4 (1), and HEPES (10).
(§2) Evoked field potentials at all 64 sites were then recorded simultaneously with the multi-channel recording system (Panasonic, MED64 system) at a 20 kHz sampling rate. One of the planar microelectrodes of the 64 available was used for cathode stimulation. Bipolar constant current pulses (10 to 45 μA, 0.1 msec) were then produced. To collect typical responses in field CA1, one of the electrodes in the Schaffer collateral fibers was selected as a stimulating electrode while another one in stratum radiatum was selected as a recording electrode. Synaptic responses were recorded at eight-step stimulation intensities (10 to 45 μA, 5 μA steps). After each recording session, ACSF was replaced with culture medium and the samples in the probes were returned to the CO2 incubator.
fEPSPs were recorded at 20 s intervals using a paired-pulse stimulation paradigm with an inter-pulse interval of 50 msec. […] Slope and decay time of the responses were remarkably similar to those recorded in acutely prepared slices using the same system (FIG. 2C). […]

[2] = tested on: cultured hippocampal samples; assay: PI uptake method, dose-response of excitotoxins; assay type: cell-based; settings: for Hill coefficient (PI uptake method): PI uptake dose-response curve; for EC50: PI uptake, read-out: EC50 from the PI uptake method
Experimental: The mechanisms underlying the reduction in amplitude of synaptic responses produced by incubation with these two excitotoxins were further studied by applying various concentrations of NMDA and AMPA to tissue samples. As in the control experiments, the plateau values of the respective I/O curves were used for the analysis (FIGS. 4A and 4B). […] For comparison, dose-response curves obtained with the PI uptake method were plotted in the same figures (FIGS. 4A and 4B, open circles and dashed lines).

[3] = tested on: neuronal samples chronically exposed to NMDA; assay: Neuroprotectant assay: fEPSP amplitude on MED probe with 10 μM NMDA as excitotoxin; assay type: cell-based, Sprague-Dawley rats
Experimental: An assay for identifying neuroprotectants first involves testing the stability of the recordings by comparing FEPSP amplitudes measured at the beginning of the experiments with those measured later, e.g., after at least 3, 24, 48, and 72 hours at the same stimulation intensity (FIG. 1C). For data analysis, the amplitude of the maximal (plateau) value of the I/O curve is used to determine stability of the recordings. Typically, it corresponds to responses obtained by stimulation intensities of […] (FIG. 2B).
NMDA was selected as the excitotoxin. Based on the dose-response analysis described above (FIG. 4A), 10 μM NMDA was chosen as the concentration of agonist for use in this neuroprotectant assay. […] The neuronal samples and MED probes were prepared as described above.
After performing control measurements, neuronal samples were incubated in culture medium containing 10 μM NMDA and 1 μM MK-801 for various periods of time. […] The relative amplitude of synaptic responses measured at stimulation intensities corresponding to the plateau of I/O curves after 3 days of incubation was 91±6% of control (n=3).
After performing control measurements, neuronal samples were incubated in culture medium containing 10 μM NMDA and 30 μM memantine for various periods of time. […] However the degree of protection was much smaller than that provided by MK-801, as only 78±5% (n=3) of the initial amplitude was preserved under these conditions. The concentration dependency of memantine protection was studied using 10 μM NMDA and various concentrations of memantine.

neuronal samples = assay: fEPSP recording on MED probe: incubation with NMDA antagonist alone; assay type: cell-based, Sprague-Dawley rats; settings: for amplitudes of responses, of control: n=3
Experimental: as §1, §2
However, after 1, 2, and 3 days of incubation, the amplitudes of responses were decreased to 83±6%, 79±11%, and 76±10% (n=3) of control, respectively.

Cc1onc(O)c1CC(N)C(=O)O (stereo not drawn) [AMPA, amino-3-hydroxy-5-methyl-4-isoxazolepropionic acid]
recovery of synaptic responses after agonist removal ([1]; 1 μM AMPA 3 days, then 24 hours of AMPA removal): no recovery was observed
time course of the decrease in synaptic response ([1]; 1 μM AMPA, three hours and subsequent time points): continued to decrease at subsequent time points, stabilizing after 1 day
amplitude of synaptic responses, of control values ([1]; 40 min. incubation with 3 μM AMPA, n=3): 12±5%
synaptic response amplitudes ([1]; 3 days of incubation with 1 μM AMPA, n=3): 46±4%
effect of chronic exposure on synaptic responses [1]: dose-dependent decreases in synaptic responses
Hill coefficient [1]: 2.6±0.8
EC50 [1]: 0.81 ± 0.1 µM
Hill coefficient (PI uptake method) [2]: 2.0±0.1
EC50 [2]: 3.87 ± 0.1 µM

C[C@]12N[C@H](Cc3ccccc31)c1ccccc12 [MK-801]
protection of synaptic transmission against NMDA-mediated neurotoxicity ([3]; 10 μM NMDA and 1 μM MK-801, 3 hours up to 3 days): almost completely protected
relative amplitude of synaptic responses at plateau of I/O curves, of control ([3]; 10 μM NMDA and 1 μM MK-801, 3 days of incubation, n=3): 91±6%
synaptic responses (neuronal samples; 1 μM MK-801 alone, 3 hours of incubation): not affected
amplitudes of responses, of control (neuronal samples; 1 μM MK-801 alone, 1 day of incubation): 83±6%
amplitudes of responses, of control (neuronal samples; 1 μM MK-801 alone, 2 days of incubation): 79±11%
amplitudes of responses, of control (neuronal samples; 1 μM MK-801 alone, 3 days of incubation): 76±10%

CN[C@H](CC(=O)O)C(=O)O [NMDA, N-methyl-D-aspartate]
synaptic responses, of the initial amplitude ([1]; 10 μM NMDA for 40 min.): 109±4%
synaptic responses, of the initial amplitude ([1]; 10 μM NMDA for 3 hours): 66±5%
synaptic responses, of the initial amplitude ([1]; 10 μM NMDA for 1 day): 52±2%
synaptic responses, of the initial amplitude ([1]; 10 μM NMDA for 3 days): 18±3%
maximal amplitude of synaptic responses, of control values ([1]; 10 μM NMDA, three hours of incubation, n=3): 18±4%
effect of chronic exposure on synaptic responses [1]: dose-dependent decreases in synaptic responses
Hill coefficient [1]: 1.7±0.2
EC50 [1]: 5.2 ± 0.5 µM
amplitude of synaptic responses, of control values ([1]; end of incubation with 10 μM NMDA for 40 min., n=3): 48±12%
amplitude of synaptic responses, of control values ([1]; end of incubation with 10 μM NMDA for 3 hours, n=3): 22±7%
amplitude of synaptic responses, of control values ([1]; end of incubation with 10 μM NMDA for 1 day, n=3): 13±3%
amplitude of synaptic responses, of control values ([1]; end of incubation with 10 μM NMDA for 3 days, n=3): 11±3%
Hill coefficient (PI uptake method) [2]: 3.7±1.0
EC50 [2]: 21.6 ± 3.4 µM

CC12CC3CC(C)(C1)CC(N)(C3)C2 [memantine]
initial amplitude preserved ([3]; 10 μM NMDA and 30 μM memantine, up to 3 days of incubation, n=3): 78±5%
Hill coefficient of protection ([3]; 10 μM NMDA and various concentrations of memantine): 1.1±3
IC50 ([3]; Rattus norvegicus, 10 μM NMDA and various concentrations of memantine, read-out: IC50 of protection (Hill equation)): 6.9 ± 1.6 µM
synaptic transmission (neuronal samples; memantine alone, even at 30 μM, long-term incubation): did not result in a significant decrease
